Experimental data as given in publication PMC10307063, “Bioprospection of Selected Plant Secondary Metabolites as Modulators of the Proteolytic Activity of Plasmodium falciparum Plasmepsin V” (BioMed Research International, 2023).
Where a SMILES comes first, the peptide text is derived from it. [ ]: non-standard residue; d: D form. The star is where a group is joined. Sta = CC(C)C[C@H](N)[C@@H](O)CC(=O)O; Isovaleryl = CC(C)CC(=O)*

Key:
[1] = target: T1, Plasmodium falciparum plasmepsin V (PfPMV) (Plasmodium falciparum, UniProt Q8I6Z5); assay: casein proteolysis assay with recombinant enzyme (A280), Lineweaver-Burk kinetics; format: biochemical
T1 construct: gene PMV; Trx-PfPMVp37
T1 sequence (Q8I6Z5 whole entry): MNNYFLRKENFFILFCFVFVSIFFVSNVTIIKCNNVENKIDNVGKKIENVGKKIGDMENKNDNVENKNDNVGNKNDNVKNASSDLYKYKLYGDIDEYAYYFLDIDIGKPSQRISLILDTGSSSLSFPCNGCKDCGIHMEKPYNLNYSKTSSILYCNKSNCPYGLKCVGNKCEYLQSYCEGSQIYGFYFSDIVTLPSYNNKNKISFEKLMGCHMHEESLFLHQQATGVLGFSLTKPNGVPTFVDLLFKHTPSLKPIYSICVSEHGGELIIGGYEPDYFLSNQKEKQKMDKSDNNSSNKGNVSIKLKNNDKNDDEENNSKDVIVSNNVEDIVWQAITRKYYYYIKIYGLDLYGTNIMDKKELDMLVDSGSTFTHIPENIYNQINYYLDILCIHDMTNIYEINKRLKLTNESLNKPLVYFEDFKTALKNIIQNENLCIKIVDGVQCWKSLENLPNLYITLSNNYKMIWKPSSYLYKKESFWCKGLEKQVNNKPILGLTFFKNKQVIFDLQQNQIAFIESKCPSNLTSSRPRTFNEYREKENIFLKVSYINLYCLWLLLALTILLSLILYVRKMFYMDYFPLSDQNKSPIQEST

[2] = target: T1, Plasmodium falciparum plasmepsin V (PfPMV); assay: casein proteolysis assay with recombinant enzyme (A280); format: biochemical

Structure (SMILES) | IC50 [1] | IC50 [2]
O=c1c(O)c(-c2ccc(O)c(O)c2)oc2cc(O)cc(O)c12 [quercetin] | 53.1 µM | –
O=c1c(O)c(-c2ccc(O)cc2)oc2cc(O)cc(O)c12 [kaempferol] | 22.4 µM | –
CC(C)CC(=O)N[C@H](C(=O)N[C@H](C(=O)N[C@@H](CC(C)C)[C@@H](O)CC(=O)N[C@@H](C)C(=O)N[C@@H](CC(C)C)[C@@H](O)CC(=O)O)C(C)C)C(C)C [pepstatin] (Isovaleryl-VV[Sta]A[Sta]-OH) | – | 62.6 µM
CC(C)=CC[C@@H](O)C1=CC(=O)c2c(O)ccc(O)c2C1=O [shikonin] | 43.3 µM | –
